Data from patent publication EP2100602A1, “Method and compositions suitable for treatment of wounds” (QuoNova Europe GmbH, priority 2008, dated 2009).

Tested on: Pseudomonas aeruginosa
Test: Porcine second degree burn wound model infected with Pseudomonas aeruginosa; flush culture (planktonic) and scrub culture (biofilm) counts
Format: in vivo
Settings: pig burn wounds; for reduction of counts of planktonic P. aeruginosa: ointment without SSD; for reduction of biofilm bacteria: treatment within 20 minutes of inoculation, compared to the vehicle control, SSD not printed for these labels
[1] = used within 20 minutes of wound inoculation

Structure (SMILES) | reduction of counts of planktonic P. aeruginosa (used on established biofilms) | reduction of counts of planktonic P. aeruginosa [1] | reduction of biofilm bacteria [Log] | reduction of biofilm P. aeruginosa (without SSD, used within 20 minutes) [Log]
Cn1nc(C(C)(C)C)cc1C(=O)NNC(=O)c1ccc(Cl)s1 [Compound 1] | largest reduction | largest reduction | 2 | 1
CCCCCCCCCC(=O)CC(=O)Nc1cc(C)ns1 [Compound 2] | – | lower counts | 1.5 | –
CCCCCCCCCC(=O)CC(=O)N(C)c1ccc(F)cc1 [Compound 3] | – | lower counts | – | –
